Laboratory results published in PubChem BioAssay (NCI).
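The compound was tested at five concentrations on cells cultured in 96-well plates, with a 48-hour exposure period. The concentration for full growth arrest is given as TGI.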

Key:
Experiment in all cases: DTP human tumour cell line panel, 48 h
[1] = system: 786-0 renal
[2] = system: A498 renal
[3] = system: A549 NSCLC
[4] = system: ACHN renal
[5] = system: BT-549 breast
[6] = system: CAKI-1 renal
[7] = system: CCRF-CEM leukemia
[8] = system: COLO 205 colon
[9] = system: DU-145 prostate
[10] = system: EKVX NSCLC
[11] = system: HCC-2998 colon
[12] = system: HCT-116 colon
[13] = system: HCT-15 colon
[14] = system: HL-60(TB) leukemia
[15] = system: HOP-62 NSCLC
[16] = system: HOP-92 NSCLC
[17] = system: HS 578T breast
[18] = system: HT29 colon
[19] = system: IGROV1 ovarian
[20] = system: K-562 leukemia
[21] = system: KM12 colon
[22] = system: LOX IMVI melanoma
[23] = system: M14 melanoma
[24] = system: MCF7 breast
[25] = system: MDA-MB-231 breast
[26] = system: MDA-MB-435
[27] = system: MOLT-4 leukemia
[28] = system: NCI-H226 lung
[29] = system: NCI-H23 lung
[30] = system: NCI-H460 lung
[31] = system: NCI-H522 lung
[32] = system: NCI/ADR-RES ovarian
[33] = system: OVCAR-3 ovarian
[34] = system: OVCAR-4 ovarian
[35] = system: OVCAR-5 ovarian
[36] = system: OVCAR-8 ovarian
[37] = system: PC-3 prostate
[38] = system: RXF 393 renal
[39] = system: SF-268 CNS
[40] = system: SF-295 CNS
[41] = system: SF-539 CNS
[42] = system: SK-MEL-2 melanoma
[43] = system: SK-MEL-28 melanoma
[44] = system: SK-MEL-5 melanoma
[45] = system: SK-OV-3 ovarian
[46] = system: SN12C renal
[47] = system: SNB-19 CNS
[48] = system: SW-620 colon
[49] = system: T-47D breast
[50] = system: TK-10 renal
[51] = system: U251 CNS
[52] = system: UACC-257 melanoma
[53] = system: UACC-62 melanoma
[54] = system: UO-31 renal

## O=S1(=O)c2ccccc2N(c2ccccc2)c2nnnn21
[1]
  TGI: 32.7 µM
[2]
  TGI: 55.4 µM
[3]
  TGI: > 100 µM
[4]
  TGI: > 100 µM
[5]
  TGI: 70.5 µM
[6]
  TGI: 36.9 µM
[7]
  TGI: 31 µM
[8]
  TGI: 48.5 µM
[9]
  TGI: > 100 µM
[10]
  TGI: > 100 µM
[11]
  TGI: 36.4 µM
[12]
  TGI: 86.9 µM
[13]
  TGI: 37.8 µM
[14]
  TGI: 33.6 µM
[15]
  TGI: 45.9 µM
[16]
  TGI: 88.7 µM
[17]
  TGI: > 100 µM
[18]
  TGI: 67.8 µM
[19]
  TGI: > 100 µM
[20]
  TGI: > 100 µM
[21]
  TGI: > 100 µM
[22]
  TGI: 32.6 µM
[23]
  TGI: 54.5 µM
[24]
  TGI: > 100 µM
[25]
  TGI: 72.4 µM
[26]
  TGI: > 100 µM
[27]
  TGI: 55.3 µM
[28]
  TGI: > 100 µM
[29]
  TGI: 59.6 µM
[30]
  TGI: > 100 µM
[31]
  TGI: 38.9 µM
[32]
  TGI: > 100 µM
[33]
  TGI: 47.2 µM
[34]
  TGI: 70.4 µM
[35]
  TGI: > 100 µM
[36]
  TGI: > 100 µM
[37]
  TGI: > 100 µM
[38]
  TGI: 49.5 µM
[39]
  TGI: > 100 µM
[40]
  TGI: > 100 µM
[41]
  TGI: 35.7 µM
[42]
  TGI: > 100 µM
[43]
  TGI: 92.9 µM
[44]
  TGI: > 100 µM
[45]
  TGI: > 100 µM
[46]
  TGI: 39.1 µM
[47]
  TGI: 88.5 µM
[48]
  TGI: 53.6 µM
[49]
  TGI: > 100 µM
[50]
  TGI: > 100 µM
[51]
  TGI: > 100 µM
[52]
  TGI: > 100 µM
[53]
  TGI: 37.1 µM
[54]
  TGI: > 100 µM
